Experimental data reported in the NIST ThermoML archive (doi:10.1016/j.jct.2017.07.013).

Experiments:
[1] = 101.3 kPa, Liquid; for speed of sound: Frequency=3 MHz, Single path-length method; for mass density: Vibrating tube method
[2] = refractive index (Na D-line) (dimensionless); settings: 101.3 kPa, Liquid, Standard Abbe refractometry
[3] = xn = mol fraction of the nth substance listed; settings: 101.3 kPa, Liquid, x2 = 0; for speed of sound: Frequency=3 MHz, Single path-length method; for mass density: Vibrating tube method
[4] = refractive index (Na D-line) (dimensionless); xn = mol fraction of the nth substance listed; settings: 101.3 kPa, Liquid, Standard Abbe refractometry, x2 = 0

CCCC[n+]1ccn(C)c1.O=S(=O)([N-]S(=O)(=O)C(F)(F)F)C(F)(F)F
Settings	mass density, [1] [kg/m3]	refractive index, [2]	speed of sound, [1] [m/s]
303.15 K	1428.9	1.4245	1216.8
308.15 K	1424.1	1.4231	1205.8
313.15 K	1419.4	1.421	1195
318.15 K	1414.6	1.4195	1184.2
323.15 K	1409.9	1.4173	1173.6

COC(=O)OC [dimethyl carbonate] + CCCC[n+]1ccn(C)c1.O=S(=O)([N-]S(=O)(=O)C(F)(F)F)C(F)(F)F
Settings	mass density, [3] [kg/m3]	refractive index, [4]	speed of sound, [3] [m/s]
303.15 K	1056.8	1.3648	1177.3
308.15 K	1050.2	1.3629	1155.6
313.15 K	1043.5	1.3626	1134.2
318.15 K	1036.8	1.3601	1113.1
323.15 K	1030	1.3586	1092.2

COC(=O)OC [dimethyl carbonate]
Settings	mass density, [1] [kg/m3]	refractive index, [2]	speed of sound, [1] [m/s]
303.15 K	1056.8	1.3648	1177.3
308.15 K	1050.2	1.3629	1155.6
313.15 K	1043.5	1.3626	1134.2
318.15 K	1036.8	1.3601	1113.1
323.15 K	1030	1.3586	1092.2
